# From doi:10.1101/2025.11.20.689572v1 (biorxiv, 2025)
# pEC50, pKi: −log10 of the molar value.
# How the values were obtained:
# M5 = target: T1, M5 (Homo sapiens, UniProt P08912); assay: competitive radioligand binding, HEK293 membranes
# T1 construct: gene CHRM5; full-length receptor; HEK293 with TRUPATH sensors (function)
# T1 sequence (P08912 1-532): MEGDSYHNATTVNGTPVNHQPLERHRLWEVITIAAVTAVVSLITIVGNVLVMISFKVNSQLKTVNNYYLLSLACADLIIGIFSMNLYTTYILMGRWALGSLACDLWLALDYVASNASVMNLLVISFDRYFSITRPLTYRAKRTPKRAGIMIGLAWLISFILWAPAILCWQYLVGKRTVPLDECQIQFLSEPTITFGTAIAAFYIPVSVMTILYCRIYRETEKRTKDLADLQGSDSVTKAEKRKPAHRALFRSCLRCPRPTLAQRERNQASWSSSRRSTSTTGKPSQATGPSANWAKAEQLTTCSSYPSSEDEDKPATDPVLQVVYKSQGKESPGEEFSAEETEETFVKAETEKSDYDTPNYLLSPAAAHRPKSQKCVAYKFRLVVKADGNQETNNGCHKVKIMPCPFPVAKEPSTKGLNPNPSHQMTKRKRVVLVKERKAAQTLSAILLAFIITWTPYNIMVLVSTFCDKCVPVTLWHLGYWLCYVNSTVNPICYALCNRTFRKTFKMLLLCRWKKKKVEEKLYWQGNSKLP
# SSTR4 = SSTR4 (Homo sapiens, UniProt P31391); assay: cell-based; set-up: species or system HTLA; PRESTO-Tango beta-arrestin2 recruitment, luciferase luminescence, concentration-response; details: Assay=Tango; agonist mode
# CHRM3 = CHRM3 (Homo sapiens, UniProt P20309); assay: cell-based; set-up: species or system HTLA; PRESTO-Tango beta-arrestin2 recruitment, luciferase luminescence, concentration-response; details: Assay=Tango; agonist mode
# M2 = target: T2, M2 (Homo sapiens, UniProt P08172); assay: competitive radioligand binding, HEK293 membranes
# T2 construct: gene CHRM2; full-length receptor; HEK293 with TRUPATH sensors (function)
# T2 sequence (P08172 1-466): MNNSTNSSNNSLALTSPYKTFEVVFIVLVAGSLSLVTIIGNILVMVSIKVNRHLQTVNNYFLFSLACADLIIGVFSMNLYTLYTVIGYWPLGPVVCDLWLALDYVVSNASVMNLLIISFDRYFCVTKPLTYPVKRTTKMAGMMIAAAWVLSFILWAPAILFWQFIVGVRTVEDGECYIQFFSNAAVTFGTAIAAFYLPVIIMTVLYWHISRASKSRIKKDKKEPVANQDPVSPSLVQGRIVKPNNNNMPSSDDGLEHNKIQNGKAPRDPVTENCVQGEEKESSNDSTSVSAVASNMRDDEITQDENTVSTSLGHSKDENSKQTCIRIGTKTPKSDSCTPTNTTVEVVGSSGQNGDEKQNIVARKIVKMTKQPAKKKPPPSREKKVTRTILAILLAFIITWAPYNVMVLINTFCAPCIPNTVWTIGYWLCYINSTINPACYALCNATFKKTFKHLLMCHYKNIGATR
# D1 = target: T3, D1 (Homo sapiens, UniProt P21728); assay: competitive radioligand binding, HEK293 membranes
# T3 construct: gene DRD1; full-length receptor; HEK293 cell membranes
# Text: competitive radioligand binding, HEK293 membranes on D1
# H3 = target: T4, H3 (Homo sapiens, UniProt Q9Y5N1); assay: competitive radioligand binding, HEK293 membranes
# T4 construct: gene HRH3; full-length receptor; HEK293 cell membranes
# Text: competitive radioligand binding, HEK293 membranes on H3
# DRD4 = target: T5, DRD4 (Homo sapiens, UniProt P21917); assay: cell-based; set-up: species or system HTLA; PRESTO-Tango beta-arrestin2 recruitment, luciferase luminescence, concentration-response; details: Assay=Tango; agonist mode
# T5 sequence (P21917 1-419): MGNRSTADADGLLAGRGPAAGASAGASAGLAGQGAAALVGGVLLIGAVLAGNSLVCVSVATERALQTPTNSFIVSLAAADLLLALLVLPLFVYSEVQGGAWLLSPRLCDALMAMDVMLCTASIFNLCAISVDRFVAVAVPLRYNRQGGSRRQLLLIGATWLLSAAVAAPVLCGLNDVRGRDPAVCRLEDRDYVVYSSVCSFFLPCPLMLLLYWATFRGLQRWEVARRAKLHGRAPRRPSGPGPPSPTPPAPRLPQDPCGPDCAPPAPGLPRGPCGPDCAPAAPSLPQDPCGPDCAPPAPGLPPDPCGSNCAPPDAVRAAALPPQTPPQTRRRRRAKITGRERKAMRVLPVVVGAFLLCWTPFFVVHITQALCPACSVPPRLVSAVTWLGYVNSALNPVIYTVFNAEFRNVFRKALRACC
# T3 sequence (P21728 whole entry): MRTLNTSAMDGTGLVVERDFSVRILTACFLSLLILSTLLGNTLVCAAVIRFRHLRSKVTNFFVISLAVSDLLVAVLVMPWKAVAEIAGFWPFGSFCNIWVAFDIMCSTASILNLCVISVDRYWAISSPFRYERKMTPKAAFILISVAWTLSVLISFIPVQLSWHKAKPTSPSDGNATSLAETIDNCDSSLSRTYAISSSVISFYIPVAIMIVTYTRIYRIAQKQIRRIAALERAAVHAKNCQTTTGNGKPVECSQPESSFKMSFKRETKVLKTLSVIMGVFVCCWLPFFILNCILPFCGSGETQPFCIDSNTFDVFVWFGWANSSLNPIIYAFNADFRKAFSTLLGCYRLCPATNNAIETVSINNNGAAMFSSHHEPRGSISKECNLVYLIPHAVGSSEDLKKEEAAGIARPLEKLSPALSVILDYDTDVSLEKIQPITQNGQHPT
# T4 sequence (Q9Y5N1 whole entry): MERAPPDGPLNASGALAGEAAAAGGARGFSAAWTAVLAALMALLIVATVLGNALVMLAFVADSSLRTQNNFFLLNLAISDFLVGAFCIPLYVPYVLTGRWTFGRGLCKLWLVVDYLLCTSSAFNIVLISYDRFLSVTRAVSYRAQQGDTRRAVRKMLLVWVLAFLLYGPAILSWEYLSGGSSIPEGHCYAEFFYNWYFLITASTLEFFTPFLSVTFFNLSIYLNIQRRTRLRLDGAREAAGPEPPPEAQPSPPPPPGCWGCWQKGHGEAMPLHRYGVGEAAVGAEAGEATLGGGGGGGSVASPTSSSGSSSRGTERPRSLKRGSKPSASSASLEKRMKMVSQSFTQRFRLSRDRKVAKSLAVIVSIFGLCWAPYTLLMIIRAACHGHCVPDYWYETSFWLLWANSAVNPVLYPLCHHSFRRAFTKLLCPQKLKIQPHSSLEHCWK
# Chain of SSTR4 (P31391 whole entry): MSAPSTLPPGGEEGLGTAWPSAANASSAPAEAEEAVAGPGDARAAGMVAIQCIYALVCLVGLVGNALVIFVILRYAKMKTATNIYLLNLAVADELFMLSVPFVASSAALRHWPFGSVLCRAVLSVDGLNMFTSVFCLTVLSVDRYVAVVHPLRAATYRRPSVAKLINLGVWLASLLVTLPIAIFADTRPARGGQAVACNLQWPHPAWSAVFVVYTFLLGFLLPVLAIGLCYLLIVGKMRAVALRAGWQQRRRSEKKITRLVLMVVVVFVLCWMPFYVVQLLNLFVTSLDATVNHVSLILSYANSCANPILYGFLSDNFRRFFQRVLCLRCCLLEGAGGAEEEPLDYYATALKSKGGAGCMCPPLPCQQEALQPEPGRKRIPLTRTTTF
# Chain of CHRM3 (P20309 whole entry): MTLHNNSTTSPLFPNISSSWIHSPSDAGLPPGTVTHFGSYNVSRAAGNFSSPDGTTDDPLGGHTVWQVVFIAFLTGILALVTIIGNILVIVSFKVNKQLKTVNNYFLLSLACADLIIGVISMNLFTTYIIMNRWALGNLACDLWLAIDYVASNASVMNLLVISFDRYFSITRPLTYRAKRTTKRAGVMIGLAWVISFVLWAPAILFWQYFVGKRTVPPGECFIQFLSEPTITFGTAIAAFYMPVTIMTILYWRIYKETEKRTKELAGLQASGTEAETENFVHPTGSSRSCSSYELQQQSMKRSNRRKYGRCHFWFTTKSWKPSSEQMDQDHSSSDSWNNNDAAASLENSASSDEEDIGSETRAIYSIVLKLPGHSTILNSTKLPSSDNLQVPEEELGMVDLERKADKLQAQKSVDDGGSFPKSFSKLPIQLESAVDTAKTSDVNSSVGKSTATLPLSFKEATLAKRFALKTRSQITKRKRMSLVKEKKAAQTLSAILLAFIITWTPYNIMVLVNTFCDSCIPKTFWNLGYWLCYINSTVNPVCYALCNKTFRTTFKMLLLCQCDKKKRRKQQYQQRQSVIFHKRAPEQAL
SMILES,pKi (M5),pEC50 (SSTR4),pEC50 (CHRM3),pKi (M2),pKi (D1),pKi (H3),pEC50 (DRD4)
CCCCCCOc1nsnc1C1=CCCNC1 [N-desmethylxanomeline],7.03,6.03,6.98,5.84,–,–,–
CCCCCCOc1nsnc1C1=CCCN(C)C1 [Xanomeline],–,–,–,–,5.80,6.10,5.32
